From patent US5935960A, “Pro-drugs of 5-(2-(4-(1,2-benzisothiazol-3-yl)-1-piperazinyl)ethyl)-6-chloro-1,3-dihy dro-2H-indol-2-one” (Pfizer Inc., priority 1997, dated 1999)
Counter-ions that a name gives are not always drawn. Like-named read-outs stand apart in the source and are kept apart here.

Experiments:
Dopamine D-3 receptor = target: T1, Dopamine D-3 receptor (Homo sapiens, UniProt P35462); test: Dopamine D-3 radioligand binding (3H-spiroperidol, human D3-transfected CHO cells); settings: 3H-spiroperidol 0.1 nM, pH 7.4, read-out: Radioligand Binding Results, D3 (apparent Ki)
T1 construct: expressed in transfected cells; host or cells: CHO cells (from Dr. J. C. Schwartz, INSERM, Paris)
T1 sequence (P35462 whole entry): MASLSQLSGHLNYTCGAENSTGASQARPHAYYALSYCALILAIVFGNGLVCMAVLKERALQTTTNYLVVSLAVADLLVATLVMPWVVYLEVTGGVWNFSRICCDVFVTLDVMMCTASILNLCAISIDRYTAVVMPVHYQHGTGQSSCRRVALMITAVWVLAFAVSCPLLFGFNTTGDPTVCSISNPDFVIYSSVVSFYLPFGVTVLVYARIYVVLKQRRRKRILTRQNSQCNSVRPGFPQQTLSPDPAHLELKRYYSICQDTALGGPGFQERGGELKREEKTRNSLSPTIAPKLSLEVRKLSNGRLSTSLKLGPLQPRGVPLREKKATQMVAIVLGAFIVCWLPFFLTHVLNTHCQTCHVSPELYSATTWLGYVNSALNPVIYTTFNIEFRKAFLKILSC
Excerpt: (§1) The compound of formula I is therefore useful in the treatment or prevention of psychotic disorders, such as schizophrenia. […] Specifically, the standard methods for determining neuroleptic activity are based on Dopamine D-2, Dopamine D-3, Dopamine D4, 5-hydroxytryptamine-1A (5-HT-1A), 5-hydroxytryptamine-2C (5-HT-2C), and 5-hydroxytryptamine-2A (5-HT-2A) receptor binding studies. Tissues or membranes used to perform these studies are derived from rat, pig, or from cell lines expressing human receptor subtypes. LTK-cells expressing the human D2Long receptor were obtained from Dr. Olivier Civelli, Oregon Health Sciences University, Portland, Oreg. Chinese hamster ovary cells (CHO) expressing the human D3 receptor were obtained from Dr. J. C. […]
(§2) The following protocol describes one possible method for determining activity for the compound of formula I. Specific assay conditions for each receptor is described in Table 1, below. […] Non-specific binding is determined by radioligand binding in the presence of a saturating excess of a known competitor for the receptor of interest (as listed in Table 1). […] Membrane-bound ligand is determined by liquid scintillation counting of the filters in Ready-Safe scintillation cocktail (for tritiated ligands), or by direct counting in a gamma counter (for [^125 .vertline.] ligands). […]

Dopamine D-4 receptor = target: T2, Dopamine D-4 receptor (Homo sapiens, UniProt P21917); test: Dopamine D-4 radioligand binding (3H-spiroperidol, human D4-transfected COS-7 cells); settings: 3H-spiroperidol 0.1 nM, pH 7.4, read-out: Radioligand Binding Results, D4 (apparent Ki)
T2 construct: expressed in transfected cells; host or cells: COS-7 cells
T2 sequence (P21917 1-419): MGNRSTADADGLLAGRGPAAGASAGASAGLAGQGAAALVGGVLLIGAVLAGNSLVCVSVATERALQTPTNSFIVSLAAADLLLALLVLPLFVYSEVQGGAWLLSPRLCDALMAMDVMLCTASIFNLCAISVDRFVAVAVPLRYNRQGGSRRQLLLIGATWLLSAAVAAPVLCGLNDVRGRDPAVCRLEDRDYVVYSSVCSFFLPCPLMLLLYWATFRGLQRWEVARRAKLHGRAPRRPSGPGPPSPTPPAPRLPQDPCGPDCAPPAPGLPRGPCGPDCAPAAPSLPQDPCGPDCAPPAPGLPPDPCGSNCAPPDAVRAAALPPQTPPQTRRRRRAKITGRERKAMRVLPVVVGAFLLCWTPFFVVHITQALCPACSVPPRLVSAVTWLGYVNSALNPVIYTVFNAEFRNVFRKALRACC
Excerpt: as §1, §2

5HT-2A receptor = target: T3, 5HT-2A receptor (Rattus norvegicus, UniProt P14842); test: 5HT-2A radioligand binding (3H-ketanserin, rat frontal cortex); settings: 3H-ketanserin 0.4 nM, pH 7.7, read-out: Radioligand Binding Results, 5HT2 (IC50)
T3 construct: rat frontal; from tissue; host or cells: rat frontal cortex
T3 sequence (P14842 whole entry): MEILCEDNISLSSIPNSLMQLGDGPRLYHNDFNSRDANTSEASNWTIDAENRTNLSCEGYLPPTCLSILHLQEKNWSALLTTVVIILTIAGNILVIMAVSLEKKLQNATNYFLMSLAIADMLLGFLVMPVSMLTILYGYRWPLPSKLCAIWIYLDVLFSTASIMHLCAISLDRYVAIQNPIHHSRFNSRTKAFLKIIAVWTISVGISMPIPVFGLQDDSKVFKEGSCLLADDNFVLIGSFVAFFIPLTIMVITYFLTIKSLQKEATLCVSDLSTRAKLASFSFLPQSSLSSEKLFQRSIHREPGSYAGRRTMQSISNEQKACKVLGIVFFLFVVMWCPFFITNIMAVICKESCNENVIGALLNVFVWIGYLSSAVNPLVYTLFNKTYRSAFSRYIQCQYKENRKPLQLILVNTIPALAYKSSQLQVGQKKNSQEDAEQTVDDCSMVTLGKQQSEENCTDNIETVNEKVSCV
Excerpt: as §1, §2

5HT-1A receptor = target: T4, 5HT-1A receptor (Rattus norvegicus, UniProt P19327); test: 5HT-1A radioligand binding (3H-8OH-DPAT, rat cortex); settings: 3H-8OH-DPAT 1.5 nM, pH 7.7, read-out: Radioligand Binding Results, 5HT1A (IC50)
T4 construct: rat cortex; from tissue; host or cells: rat cortex
T4 sequence (P19327 1-422): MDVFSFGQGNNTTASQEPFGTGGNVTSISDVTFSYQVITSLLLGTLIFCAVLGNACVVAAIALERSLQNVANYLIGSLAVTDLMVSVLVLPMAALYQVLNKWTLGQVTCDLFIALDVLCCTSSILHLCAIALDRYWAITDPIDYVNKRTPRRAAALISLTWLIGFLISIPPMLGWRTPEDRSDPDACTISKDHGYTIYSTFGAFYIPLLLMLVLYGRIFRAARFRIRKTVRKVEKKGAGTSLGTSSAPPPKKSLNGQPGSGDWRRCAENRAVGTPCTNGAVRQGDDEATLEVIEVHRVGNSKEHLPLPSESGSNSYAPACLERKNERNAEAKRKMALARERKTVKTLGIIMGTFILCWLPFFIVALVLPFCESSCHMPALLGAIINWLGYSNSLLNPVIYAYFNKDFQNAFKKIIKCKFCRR
Excerpt: as §1, §2

aqueous solubility = format: physicochemical; settings: dihydrochloride salt, at about 25° C.
[1] = titration with 0.2032 Molar sodium hydroxide (pKa); format: physicochemical; settings: dihydrochloride titrated with 0.2032 M NaOH
Procedure: The compound (5.0 g, 12.1 mmol) from Example 1 was suspended in 75 mL of THF at room temperature, and then 1.97 mL of concentrated hydrochloric acid was slowly added over 30 min affording a gummy solid. Water (5 mL) was added and the gummy solids were stirred for 6 hours to produce a finely divided solid which was granulated overnight. The mixture was filtered and the filter cake was washed with THF (10 mL). The product was dried in vacuo at 25° C. overnight under a nitrogen bleed to give 5.87 g of the title dihydrochloride compound as a tan solid (mp=232-240° C. with decomposition).

Row | SMILES | Ki (Dopamine D-3 receptor) [nM] | Ki (Dopamine D-4 receptor) [nM] | IC50 (5HT-2A receptor) [nM] | IC50 (5HT-1A receptor) [nM] | aqueous solubility relative to ziprasidone hydrochloride (times higher) (aqueous solubility) | solubility (aqueous solubility; water) [mg/mL] | pKa ([1]; first equivalence point pH 4.33, read-out: pKa (first)) | pKa ([1]; second equivalence point pH 8.22, read-out: pKa (second))
1 | N=C(c1ccccc1S)N1CCN(CCc2cc3c(cc2Cl)NC(=O)C3)CC1 [Example 1, 1-[2-(6-chloro-2,3-dihydro-2-oxo-1H-indol-5-yl)ethyl]-4-[imino(2-mercaptophenyl)methyl]piperazine] | 5.8 | 59.2 | 0.35 | 12 |  |  |  | 
2 | N=C(c1ccccc1S)N1CCN(CCc2cc3c(cc2Cl)NC(=O)C3)CC1 [Example 2, 1-[2-(6-Chloro-2.3-dihydro-2-oxo-1H-indol-5-yl)ethyl]-4-[(imino(2-mercaptophenyl)methyl]piperazinedihydrochloride] |  |  |  |  | approximately 300 times | ~25 | 3.1 | 5.5
